# Laboratory results from paper PMC11432795, “Mutagenesis of the Peptide Inhibitor of ASIC3 Channel Introduces Binding to Thumb Domain of ASIC1a but Reduces Analgesic Activity” (Marine Drugs, 2024).
# Positions of bridges follow the written chain, without caps; N, C: chain ends. Residues, ends and D or L forms follow the SMILES beside them.
# Columns and labels:
# [1] = cited from earlier work
# Description: Selective ligands targeting specific ASIC isoforms are invaluable for structural and functional investigations. Peptide ligands sourced from various animal venoms have emerged as such tools. […] Bot ... || The 29-amino acid peptide Ugr9a-1, isolated from the venom of the northern sea anemone Urticina grebelnyi, represents a structural class of toxins termed “boundless β-hairpin”. […] While the significant involvement of ASIC3 channels in acid-induced, chronic neuropathic and inflammatory pain has been extensively reported, the role of ASIC1a remains less clear.
# rat ASIC3 channel = target: T1, rat ASIC3 channel (Rattus norvegicus, UniProt O35240); test: Two-electrode voltage clamp, rat ASIC3 in X. laevis oocytes; type: cell-based; details: pH 5.5 stimulus, mean ± S.E.M., 5 cells; for nH: inhibition of rat ASIC3, conditioning pH 7.4; for IC50: rat ASIC3, X. laevis oocytes, TEVC, Vh −50 mV, conditioning pH 7.4, peptide 30 s before stimulus
# T1 construct: expressed in transfected cells; host or cells: Xenopus laevis oocytes injected with mRNA made from pcDNA3.1-rat ASIC3
# T1 sequence (O35240 1-533): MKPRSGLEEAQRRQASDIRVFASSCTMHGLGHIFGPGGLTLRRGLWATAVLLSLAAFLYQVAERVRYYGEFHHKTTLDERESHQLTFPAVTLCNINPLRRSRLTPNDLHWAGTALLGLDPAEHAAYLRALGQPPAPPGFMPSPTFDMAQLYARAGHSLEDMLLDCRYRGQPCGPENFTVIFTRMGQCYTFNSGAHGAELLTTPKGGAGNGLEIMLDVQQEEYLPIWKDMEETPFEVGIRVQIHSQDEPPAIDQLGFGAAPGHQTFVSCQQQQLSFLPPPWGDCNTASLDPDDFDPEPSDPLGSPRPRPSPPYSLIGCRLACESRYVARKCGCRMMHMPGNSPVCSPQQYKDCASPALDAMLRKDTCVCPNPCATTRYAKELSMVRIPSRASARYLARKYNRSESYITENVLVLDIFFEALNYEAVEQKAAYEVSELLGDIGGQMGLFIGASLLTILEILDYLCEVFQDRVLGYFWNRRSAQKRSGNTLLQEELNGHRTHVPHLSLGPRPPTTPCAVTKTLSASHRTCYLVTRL
# Method: Figure 3 The effect of mutant peptides S16K and A23K on rat ASIC1a and ASIC3 channels. […] (B) Dose–response curves for the inhibitory effect of mutant peptides on ASIC1a. Each data point represents data from 5 cells. (C) Representative current traces of Ugr9-1, S16K, and A23K at a concentration of 12.5 µM on ASIC3. […] Each point represents data from 5 cells. The depicted currents were induced by a pH 5.5 stimulus following a conditioning pH of 7.4, with peptides applied for 30 s before the pH stimulus. The holding potential (Vh) was −50 mV, and the time interval between applications ranged from 1 to 2 min. Data are presented as mean ± S.E.M.
# A small portion of the ovary was isolated from frogs under anesthesia induced by a 0.17% solution of procaine methanesulphonate (MS222) (Sigma), followed by treatment with collagenase (1 mg/mL) at room temperature for 2 h. Oocytes at stages IV and V, devoid of follicular membranes, were transferred to ND-96 medium (containing 96 mM NaCl, 5 mM HEPES, 2 mM KCl, 1.8 mM CaCl2, 1 mM MgCl2, pH 7.4). mRNA synthesis was performed from pcDNA3.1 vectors (Invitrogen, Carlsbad, CA, USA) containing the rat ASIC3 gene, as well as pCI vectors containing genes for rat ASIC1a, its mutant analogues, and ASIC1b. mRNA (2.5–10 ng) was then injected into the oocytes. For the ASIC1a/3 heteromeric channels, the mRNA encoding the ASIC1a and ASIC3 subunits were injected in a 1:5 ratio, respectively. Subsequently, the oocytes were incubated for 2–3 days at a temperature of 17–19 °C in ND96 medium supplemented with gentamicin and streptomycin (20 µg/mL each).
# Whole-cell electrophysiological recordings of ASIC channels were conducted using a two-electrode voltage-clamp setup. Microelectrodes were filled with 3 M KCl. Recordings from oocytes were carried out at a holding potential of −50 mV, with data filtered at 10 Hz and sampled at a rate of 100 Hz using an L780M ADC (LCard, Moscow, Russia). The synchronized delivery of solutions into the chamber and recording of electrophysiological results were carried out using in-house software v.2. Activation of ASIC channels occurred through rapid pH changes in the solution, achieved by replacing the working solution in the chamber with ND96-based solutions at varying pH levels. Specifically, HEPES was substituted with 10 mM MES for pH 5.5–6.5 and MOPS for pH 6.7–7.0.
# Fresh peptide solutions were meticulously prepared in ND96 buffer with a pH of 7.43 immediately before experiments, with strict control over the pH levels. Peptides were applied for 30 s at a conditioning pH of 7.43 before acid stimulation of the channel. The interval between applications was maintained at a minimum of 1.5 to 2 min.
# Electrophysiological data analysis was conducted using OriginPro 2018 software (OriginLab, Northampton, MA, USA). Dose–response relationships for Ugr9a-1, S16K, and A23K peptides were fitted using a Hill function: F1(x) = A − A/(1 + (x/IC50)^nH), where F1(x) represents the amplitude of the current at concentration x of the peptide, A is the maximum amplitude of the current, IC50 is the half-maximum inhibitory concentration of the peptide, and nH is the Hill coefficient.
structure (smiles),measurement,setting,value
"CC[C@H](C)[C@H](N)C(=O)N[C@@H](CO)C(=O)N[C@H](C(=O)N[C@@H](CC(=O)O)C(=O)N1CCC[C@H]1C(=O)N1CCC[C@H]1C(=O)N[C@H]1CSSC[C@@H]2NC(=O)[C@H](CC(N)=O)NC(=O)CNC(=O)[C@H](CO)NC(=O)CNC(=O)[C@H](CC(=O)O)NC(=O)[C@H](CCCNC(=N)N)NC(=O)[C@H](Cc3c[nH]cn3)NC(=O)[C@H](Cc3ccc(O)cc3)NC(=O)[C@H](CSSC[C@@H](C(=O)NCC(=O)N[C@@H](C)C(=O)N[C@H](C(=O)O)C(C)C)NC(=O)CNC(=O)[C@H](Cc3ccc(O)cc3)NC(=O)[C@H](C)NC(=O)[C@H](CC(=O)O)NC(=O)[C@H](Cc3ccc(O)cc3)NC(=O)[C@H](C(C)C)NC2=O)NC(=O)[C@H](Cc2ccccc2)NC(=O)[C@H](CCCNC(=N)N)NC1=O)[C@@H](C)CC [Ugr9-1] (H-ISIDPPCRFCYHRDGSGNCVYDAYGCGAV-OH; disulfide 7-19, 10-26)",effect on acid-induced and inflammatory pain,"[1]; mouse models, ref [18],[19],[20]",promising results in mitigating acid-induced and inflammatory pain
same,effect on acid-induced and CFA-induced inflammatory pain,"[1]; range of doses, ref [18],[20]",attenuates acid-induced and CFA-induced inflammatory pain in mice across a range of doses
same,nH,rat ASIC3 channel,2.33 ± 0.17
same,IC50,rat ASIC3 channel,14.2 ± 0.96 µM
"CC[C@H](C)[C@H](N)C(=O)N[C@@H](CO)C(=O)N[C@H](C(=O)N[C@@H](CC(=O)O)C(=O)N1CCC[C@H]1C(=O)N1CCC[C@H]1C(=O)N[C@H]1CSSC[C@@H]2NC(=O)[C@H](CC(N)=O)NC(=O)CNC(=O)[C@H](CO)NC(=O)CNC(=O)[C@H](CC(=O)O)NC(=O)[C@H](CCCNC(=N)N)NC(=O)[C@H](Cc3c[nH]cn3)NC(=O)[C@H](Cc3ccc(O)cc3)NC(=O)[C@H](CSSC[C@@H](C(=O)NCC(=O)N[C@@H](C)C(=O)N[C@H](C(=O)O)C(C)C)NC(=O)CNC(=O)[C@H](Cc3ccc(O)cc3)NC(=O)[C@H](CCCCN)NC(=O)[C@H](CC(=O)O)NC(=O)[C@H](Cc3ccc(O)cc3)NC(=O)[C@H](C(C)C)NC2=O)NC(=O)[C@H](Cc2ccccc2)NC(=O)[C@H](CCCNC(=N)N)NC1=O)[C@@H](C)CC [A23K] (H-ISIDPPCRFCYHRDGSGNCVYDKYGCGAV-OH; disulfide 7-19, 10-26)",nH,rat ASIC3 channel,3.58 ± 0.08
same,IC50,rat ASIC3 channel,9.39 µM
